Data as given in patent US5001160A (priority 1989, dated 1991).
Structures can show the parent of a compound that is named as a salt.

test system: bladder contraction (PvesP); experiment: not given; conditions: guinea pig, in vivo, iv

**Q.** With `CN1CCN(CC(=O)C(O)(c2ccccc2)C2CCCCC2)CC1` (centres unmarked) [1-Cyclohexyl-1-hydroxy-3-(4-methyl-1-piperazinyl)-1-phenyl-2-propanone] as the compound, how does the “T1/2 for recovery toward control level of the PvesP contraction strength parameter” value read?
**A.** 3.6 ± 0.3 h

target: postsynaptic muscarinic cholinergic receptors (bladder detrusor muscle) (Cavia porcellus, UniProt H0W1Z3); experiment: cell-based; set-up: species or system guinea pig; conditions: not given
Sequence (H0W1Z3 1-590): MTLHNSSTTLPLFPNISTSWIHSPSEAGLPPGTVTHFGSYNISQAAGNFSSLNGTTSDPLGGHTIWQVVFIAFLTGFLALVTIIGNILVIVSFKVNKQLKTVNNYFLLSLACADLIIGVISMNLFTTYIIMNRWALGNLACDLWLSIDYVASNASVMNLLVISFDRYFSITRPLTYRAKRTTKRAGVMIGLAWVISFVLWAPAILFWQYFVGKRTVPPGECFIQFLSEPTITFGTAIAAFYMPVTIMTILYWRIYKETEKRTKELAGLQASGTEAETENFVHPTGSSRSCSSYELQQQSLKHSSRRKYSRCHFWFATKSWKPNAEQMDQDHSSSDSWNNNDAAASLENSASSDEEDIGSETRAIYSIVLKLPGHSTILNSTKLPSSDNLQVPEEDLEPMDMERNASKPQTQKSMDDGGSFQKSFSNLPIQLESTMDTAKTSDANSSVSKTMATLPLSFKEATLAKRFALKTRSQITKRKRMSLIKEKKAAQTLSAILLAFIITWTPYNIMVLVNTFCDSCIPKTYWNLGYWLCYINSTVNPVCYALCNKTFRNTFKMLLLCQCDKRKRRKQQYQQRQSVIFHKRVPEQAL

**Q.** How did the Kb turn out when `O=C(CN1CCN(C(c2ccccc2)c2ccccc2)CC1)C(O)(c1ccccc1)C1CCC1` (centres unmarked) [1-Cyclobutyl-1-hydroxy-3-(4-benzyhydryl-1-piperazinyl)-1-phenyl-2-propanoneDihydrochloride] was run?
**A.** No Effect at 1 μM

**Q.** Which Kb does the source give for `O=C(CN1CCN(CCO)CC1)C(O)(c1ccccc1)C1CCCCC1` (centres unmarked) [1-Cyclohexyl-1-hydroxy-3-[4-(2-hydroxyethyl)-1-piperazinyl]-1-phenyl-2-propanone Dihydrochloride] here?
**A.** 96 nM

**Q.** For `O=C(CN1CCNCC1)C(O)(c1ccccc1)C1CCC1` (centres unmarked) [1-Cyclobutyl-1-hydroxy-1-phenyl-3-piperazinyl-2-propanone Dihydrochloride], which Kb is on record?
**A.** 86 nM

**Q.** With `O=C(CN1CCN(Cc2ccc([N+](=O)[O-])cc2)CC1)C(O)(c1ccccc1)C1CCC1` (centres unmarked) [1-Cyclobutyl-1-hydroxy-3-[4-(4-nitrobenzyl)-1-piperazinyl]-1-phenyl-2-propanone Dihydrochloride] as the compound, how does the Kb read?
**A.** 83 nM

**Q.** Which Kb does the source give for `CN1CCN(CC(=O)C(O)(c2ccccc2)C2CCC2)CC1` (centres unmarked) [1-Cyclobutyl-1-hydroxy-3-(4-methyl-1-piperazinyl)-1-phenyl-2-propanone Dihydrochloride] here?
**A.** 24.9 nM

**Q.** For `CC(C)=CCN1CCN(CC(=O)C(O)(c2ccccc2)C2CCC2)CC1` (centres unmarked) [1-Cyclobutyl-1-hydroxy-3-[4-(3-methyl-2-butenyl)-1-piperazinyl]-1-phenyl-2-propanone Dihydrochloride], which Kb is on record?
**A.** 19 nM

**Q.** Which Kb does the source give for `C=C(C)CN1CCN(CC(=O)C(O)(c2ccccc2)C2CCC2)CC1` (centres unmarked) [1-Cyclobutyl-1-hydroxy-3-[4-(2-methyl-2-propenyl)-1-piperazinyl]1-phenyl-2-propanone Dihydrochloride] here?
**A.** 100 nM

**Q.** For `CCOc1ccccc1N1CCN(CC(=O)C(O)(c2ccccc2)C2CCC2)CC1.Cl.Cl` (centres unmarked) [1-Cyclobutyl-1-hydroxy-3-[4-(2-ethoxyphenyl)-1-piperazinyl]-1-phenyl-2-propanone Dihydrochloride], which Kb is on record?
**A.** No Effect at 1 μM

**Q.** For `O=C(CN1CCN(C2CCC2)CC1)C(O)(c1ccccc1)C1CCC1` (centres unmarked) [1-Cyclobutyl-1-hydroxy-3-(4-cyclobutyl-1-piperazinyl)-1-phenyl-2-propanone Dihydrochloride], which Kb is on record?
**A.** 230 nM

**Q.** How did the Kb turn out when `CN1CCN(CC(=O)C(O)(c2ccccc2)C2CCCCC2)CC1` (centres unmarked) [1-Cyclohexyl-1-hydroxy-3-(4-methyl-1-piperazinyl)-1-phenyl-2-propanone] was run?
**A.** 25.9 ± 5.3 nM

**Q.** `Cc1ccc(CN2CCN(CC(=O)C(O)(c3ccccc3)C3CCC3)CC2)cc1` (centres unmarked) [1-Cyclobutyl-1-hydroxy-3-[4-(4-methylbenzyl)-]1-piperazinyl]-1-phenyl-2-propanone Dihydrochloride] was tested. Which Kb did it give?
**A.** 9.1 nM

**Q.** Which Kb does the source give for `O=C(CN1CCN(CCO)CC1)C(O)(c1ccccc1)C1CCC1` (centres unmarked) [1-Cyclobutyl-1-hydroxy-3-[4-(2-hydroxyethyl)-1-piperazinyl]-1-phenyl-2-propanone Dihydrochloride] here?
**A.** 201 nM

**Q.** With `C=CCN1CCN(CC(=O)C(O)(c2ccccc2)C2CCCCC2)CC1` (centres unmarked) [1-Cyclohexyl-1-hydroxy-3-(4-allyl-1-piperazinyl)-1-phenyl-2-propanone Dihydrochloride] as the compound, how does the Kb read?
**A.** 26 nM

**Q.** `COc1ccccc1N1CCN(CC(=O)C(O)(c2ccccc2)C2CCC2)CC1.Cl.Cl` (centres unmarked) [1-Cyclobutyl-1-hydroxy-3-[4-(2-methoxyphenyl)-1-piperazinyl]-1-phenyl-2-propanone Dihydrochloride] was tested. Which Kb did it give?
**A.** No Effect at 1 μM

**Q.** For `CCOC(=O)N1CCN(CC(=O)C(O)(c2ccccc2)C2CCC2)CC1.Cl` (centres unmarked) [1-Cyclobutyl-1-hydroxy-3-(4-ethoxycarbonyl-1-piperazinyl)-1-phenyl-2-propanone Hydrochloride], which Kb is on record?
**A.** No Effect at 1 μM

**Q.** For `O=C(CN1CCN(Cc2ccc(Cl)cc2)CC1)C(O)(c1ccccc1)C1CCC1` (centres unmarked) [1-Cyclobutyl-1-hydroxy-3-[4-(4-chlorobenzyl)-]1-piperazinyl]-1-phenyl-2-propanone Dihydrochloride], which Kb is on record?
**A.** 16 nM

**Q.** With `Cl.Cl.O=C(CN1CCN(c2ccc([N+](=O)[O-])cc2)CC1)C(O)(c1ccccc1)C1CCC1` (centres unmarked) [1-Cyclobutyl-1-hydroxy-3-[4-(4-nitrophenyl)-1-piperazinyl]-1-phenyl-2-propanone Dihydrochloride] as the compound, how does the Kb read?
**A.** No Effect at 1 μM

**Q.** How did the Kb turn out when `Cl.Cl.O=C(CN1CCN(c2ccccc2)CC1)C(O)(c1ccccc1)C1CCC1` (centres unmarked) [1-Cyclobutyl-1-hydroxy-3-(4-phenyl-1-piperazinyl)-1-phenyl-2-propanone Dihydrochloride] was run?
**A.** No Effect at 1 μM

**Q.** Which Kb does the source give for `CCCN1CCN(CC(=O)C(O)(c2ccccc2)C2CCC2)CC1` (centres unmarked) [1-Cyclobutyl-1-hydroxy-3-(4-propyl-1-piperazinyl)-1-phenyl-2-propanone Dihydrochloride] here?
**A.** 673 nM

**Q.** With `C=CCCN1CCN(CC(=O)C(O)(c2ccccc2)C2CCC2)CC1` (centres unmarked) [1-Cyclobutyl-1-hydroxy-3-[4-(3-butenyl)-1-piperazinyl]-1-phenyl-2-propanoneDihydrochloride] as the compound, how does the Kb read?
**A.** 35 nM

**Q.** `C=CCN1CCN(CC(=O)C(O)(c2ccccc2)C2CCC2)CC1` (centres unmarked) [1-Cyclobutyl-1-hydroxy-3-(4-allyl-1-piperazinyl)-1-phenyl-2-propanone Dihydrochloride] was tested. Which Kb did it give?
**A.** 65 nM

**Q.** For `O=C(CN1CCN(CC(=O)C(O)(c2ccccc2)C2CCC2)CC1)N1CCCC1` (centres unmarked) [1-Cyclobutyl-1-hydroxy-3-(4-pyrrolidino-carbonylmethyl-1-piperazinyl)-1-phenyl-2-propanone Dihydrochloride], which Kb is on record?
**A.** 210 nM
